From US8313751B2, “Compositions and methods for the prophylaxis or treatment of viral diseases” (priority 2003, dated 2012)
“Also recorded” adds a separate entry of the source. Like-named read-outs stand apart in the source and are kept apart here.

How the values were obtained:
influenza virus = settings: cited from earlier work
[1] = test system: influenza A virus strain fowl plague virus (FPV); type: cell-based
[2] = test system: influenza virus (fowl plague virus, FPV); set-up: species or system C57 Bl/6 mice; settings: mouse, in vivo
[3] = test system: influenza virus (fowl plague virus, FPV); settings: mouse, in vivo, ip
[4] = test system: influenza A virus strain fowl plague virus (FPV); type: cell-based; remark: listed apart in the source

SMILES	concentration from which inhibition of influenza virus infections in cell culture was observed (influenza virus) [mM]	concentration from which inhibition of influenza virus infections in cell culture was observed (influenza virus; conversion of the mM values) [mg/mL]	inhibiting effect on virus multiplication [1] [log steps]	reduction of the virus titers by a factor [1]	animals that survived the infection [2]	antiviral effect compared with lower concentrations [2]	average survival time of the dead animals versus control group [2]	influenza virus multiplication in the lung and in the total organism [2]	viruses in the lung [2]	animals that survived the infection [3]	average survival time of the dead animals versus control group [3]	body weight [3]	antiviral effectivity in vitro [4]	inhibition of the virus multiplication [4] [log steps]	reduction of the virus titers [4]
CC(=O)Oc1ccccc1C(=O)O [ASA, acetylsalicylic acid]	5 to 10	0.9 to 1.8	> 2	10	approx. 40%	comparatively not stronger; also recorded: clearly less antivirally effective	clearly longer	distinct inhibition	Smaller doses of ASA more clearly reduced the viruses in the lung than higher doses	approx. 20%	clearly longer	distinct reduction in body weight	have not shown in vitro any antiviral effectivity	2	
S=C(S)N1CCCC1 [PDTC, pyrrolidine dithiocarbamate]															approx. 10 fold
